Read-outs that look alike come from different tables or passages of the source.
Columns and labels:
[1] = tested on: HCV genotype 1a (H77 strain) replicon in HUH-7 cells; experiment: HCV replicon luciferase reporter assay, genotype 1a; assay type: cell-based; conditions: Hepatitis C virus, Huh-7, 72 h, 3 days incubation
In short: (§1)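 Replicon inhibition for both genotypes was measured as Renilla luciferase signal (EnduRen, 7.5 μM final, 2 h) after 3-day, 37° C exposure of replicon-bearing HUH-7 cells in 4% FCS DMEM, 0.5% DMSO. The 1b construct carries S1179I; the 1a H77 construct carries P1496L and S2204I. Twenty-point, 3-fold dilutions were fitted four-parametrically for EC50, and CC50 was taken from multiplexed Cell Titer-Blue.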

[2] = tested on: HCV genotype 1b (Con1) replicon in HUH-7 cells; experiment: HCV replicon luciferase reporter assay, genotype 1b; assay type: cell-based; conditions: Hepatitis C virus, Huh-7, 72 h, 3 days incubation
In short: as §1

[3] = HCV genotype 1a replicon luciferase, read-out: LE_1a (EC50, range)
[4] = HCV genotype 1b replicon luciferase, read-out: LE_1b (EC50, range)
[5] = HCV genotype 1a replicon luciferase assay, range class, read-out: LE_1a (EC50, range)
[6] = HCV genotype 1b replicon luciferase assay, range class, read-out: LE_1b (EC50, range)

| SMILES | EC50 [1, 3] | EC50 [2, 4] | other results |
| --- | --- | --- | --- |
| CC[C@@H]1C[C@H](C)CC/C=C\[C@@H]2C[C@@]2(C(=O)NS(=O)(=O)C2(C)CC2)NC(=O)[C@@H]2C[C@@H](Oc3nc(OC)cc4cc(F)ccc34)CN2C(=O)[C@H]1NC(=O)OC(C)(C)C [Compound 3212, tert-butyl ((2R,6S,7R,9R,13aS,14aR,16aS,Z)-7-ethyl-2-((6-fluoro-3-methoxyisoquinolin-1-yl)oxy)-9-methyl-14a-(((1-methylcyclopropyl)sulfonyl)carbamoyl)-5,16-dioxo-1,2,3,5,6,7,8,9,10,11,13a,14,14a,15,16,16a-hexadecahydrocyclopropa[e]pyrrolo[1,2-a][1,4]diazacyclopentadecin-6-yl)carbamate] | 0.51 to 1 nM | 0.1 to 0.5 nM |  |
| COc1ccc2c(O[C@@H]3C[C@H]4C(=O)N[C@]5(C(=O)NS(=O)(=O)C6(C)CC6)C[C@H]5/C=C\CC[C@@H](C)C[C@@H](C)[C@H](NC(=O)OC(C)(C)C(F)(F)F)C(=O)N4C3)nc3c(c2c1)CCCO3 [Compound 6080, 1,1,1-trifluoro-2-methylpropan-2-yl((2R,6S,7R,9R,13aS,14aR,16aS,Z)-2-((9-methoxy-2,3-dihydro-1H-pyrano[2,3-c]isoquinolin-6-yl)oxy)-7,9-dimethyl-14a-(((1-methylcyclopropyl)sulfonyl)carbamoyl)-5,16-dioxo-1,2,3,5,6,7,8,9,10,11,13a,14,14a,15,16,16a-hexadecahydrocyclopropa[e]pyrrolo[1,2-a][1,4]diazacyclopentadecin-6-yl)carbamate] | 0.1 to 0.5 nM | 0.51 to 1 nM | EC50 ([1]; HCV genotype 1a replicon luciferase, read-out: LE_1a (EC50)): 0.31 nM; EC50 ([2]; HCV genotype 1b replicon luciferase, read-out: LE_1b (EC50)): 0.79 nM |
| COc1ccc2c(O[C@@H]3C[C@H]4C(=O)N[C@]5(C(=O)NS(=O)(=O)C6(CF)CC6)C[C@H]5/C=C\CC[C@H](C)C[C@@H](C)[C@H](NC(=O)OC(C)(C)C)C(=O)N4C3)nc(Cl)cc2c1 [Compound 1162, tert-butyl ((2R,6S,7R,9S,13aS,14aR,16aS,Z)-2-((3-chloro-6-methoxyisoquinolin-1-yl)oxy)-14a-(((1-(fluoromethyl)cyclopropyl)sulfonyl)carbamoyl)-7,9-dimethyl-5,16-dioxo-1,2,3,5,6,7,8,9,10,11,13a,14,14a,15,16,16a-hexadecahydrocyclopropa[e]pyrrolo[1,2-a][1,4]diazacyclopentadecin-6-yl)carbamate] |  |  | EC50 [1, 5]: 4.82 to 103 nM; EC50 [2, 6]: 4.82 to 103 nM |
| COc1ccc2c(O[C@@H]3C[C@H]4C(=O)N[C@]5(C(=O)NS(=O)(=O)C6(C)CC6)C[C@H]5/C=C\CC[C@H](C)C[C@@H](C)[C@H](NC(=O)c5ccc(N(C)C)cc5)C(=O)N4C3)nccc2c1 [Compound 5180, (2R,6S,7R,9S,13aS,14aR,16aS,Z)-6-(4-(dimethylamino)benzamido)-2-((6-methoxyisoquinolin-1-yl)oxy)-7,9-dimethyl-N-((1-methylcyclopropyl)sulfonyl)-5,16-dioxo-1,2,3,5,6,7,8,9,10,11,13a,14,14a,15,16,16a-hexadecahydrocyclopropa[e]pyrrolo[1,2-a][1,4]diazacyclopentadecine-14a-carboxamide] | < 5.46 nM | < 5.46 nM |  |
| COc1ccc2c(O[C@@H]3C[C@H]4C(=O)N[C@]5(C(=O)NS(=O)(=O)C6(C)CC6)C[C@H]5/C=C\CC[C@@H](C)C[C@@H](C)[C@H](NC(=O)OC(C)(C)C)C(=O)N4C3)ncc(OC)c2c1 [Compound 4080, tert-butyl (2R,6S,7R,9R,13aS,14aR,16aS,Z)-2-(4,6-dimethoxyisoquinolin-1-yloxy)-7,9-dimethyl-14a-(1-methylcyclopropylsulfonylcarbamoyl)-5,16-dioxo-1,2,3,5,6,7,8,9,10,11,13a,14,14a,15,16,16a-hexadecahydrocyclopropa[e]pyrrolo[1,2-a][1,4]diazacyclopentadecin-6-ylcarbamate] | < 5.46 nM | < 5.46 nM |  |
| COc1ccc2c(O[C@@H]3C[C@H]4C(=O)N[C@]5(C(=O)NS(=O)(=O)C6CC6)C[C@H]5/C=C\CC[C@@H](C)C[C@@H](C)[C@H](NC(=O)O[C@@H]5C[C@@H]6C[C@@H]6C5)C(=O)N4C3)nc(-c3ccc(OC)c(F)c3)cc2c1 [Compound 3058, (1R,3r,5S)-bicyclo[3.1.0]hexan-3-yl((2R,6S,7R,9R,13aS,14aR,16aS,Z)-14a-((cyclopropylsulfonyl)carbamoyl)-2-((3-(3-fluoro-4-methoxyphenyl)-6-methoxyisoquinolin-1-yl)oxy)-7,9-dimethyl-5,16-dioxo-1,2,3,5,6,7,8,9,10,11,13a,14,14a,15,16,16a-hexadecahydrocyclopropa[e]pyrrolo[1,2-a][1,4]diazacyclopentadecin-6-yl)carbamate] |  |  | EC50 [1, 5]: < 5.46 nM; EC50 [2, 6]: < 5.46 nM |
| C[C@@H]1CC/C=C\[C@@H]2C[C@@]2(C(=O)NS(=O)(=O)C2(C)CC2)NC(=O)[C@@H]2C[C@@H](Oc3nccc4c5c(ccc34)N(C)CCO5)CN2C(=O)[C@@H](NC(=O)OC(C)(C)C)[C@H](C)C1 [Compound 5294, tert-butyl ((2R,6S,7R,9R,13aS,14aR,16aS,Z)-7,9-dimethyl-2-((4-methyl-3,4-dihydro-2H-[1,4]oxazino[2,3-f]isoquinolin-7-yl)oxy)-14a-(((1-methylcyclopropyl)sulfonyl)carbamoyl)-5,16-dioxo-1,2,3,5,6,7,8,9,10,11,13a,14,14a,15,16,16a-hexadecahydrocyclopropa[e]pyrrolo[1,2-a][1,4]diazacyclopentadecin-6-yl)carbamate] | < 5.46 nM | < 5.46 nM |  |
| [2H]C([2H])([2H])C(OC(=O)N[C@@H]1C(=O)N2C[C@H](Oc3nc(-c4ccc(OC(C)C)nc4)cc4cc(OC)ccc34)C[C@H]2C(=O)N[C@]2(C(=O)NS(=O)(=O)C3CC3)C[C@H]2/C=C\CC[C@H](C)C[C@H]1C)(C([2H])([2H])[2H])C(F)(F)F [Compound 5216, 1,1,1,3,3,3-hexadeutero-2-(trifluoromethyl)propan-2-yl((2R,6S,7R,9S,13aS,14aR,16aS,Z)-14a-((cyclopropylsulfonyl)carbamoyl)-2-((3-(6-isopropoxypyridin-3-yl)-6-methoxyisoquinolin-1-yl)oxy)-7,9-dimethyl-5,16-dioxo-1,2,3,5,6,7,8,9,10,11,13a,14,14a,15,16,16a-hexadecahydrocyclopropa[e]pyrrolo[1,2-a][1,4]diazacyclopentadecin-6-yl)carbamate] | 4.82 to 103 nM | < 5.46 nM |  |
| CCCOc1cc2c(Cl)cccc2c(O[C@@H]2C[C@H]3C(=O)N[C@]4(C(=O)NS(=O)(=O)C5CC5)C[C@H]4/C=C\CC[C@H](C)C[C@@H](C)[C@H](NC(=O)OC(C)(C)C(F)(F)F)C(=O)N3C2)n1 [Compound 1083, 1,1,1-trifluoro-2-methylpropan-2-yl((2R,6S,7R,9S,13aS,14aR,16aS,Z)-2-((5-chloro-3-propoxyisoquinolin-1-yl)oxy)-14a-((cyclopropylsulfonyl)carbamoyl)-7,9-dimethyl-5,16-dioxo-1,2,3,5,6,7,8,9,10,11,13a,14,14a,15,16,16a-hexadecahydrocyclopropa[e]pyrrolo[1,2-a][1,4]diazacyclopentadecin-6-yl)carbamate] |  |  | EC50 [1, 5]: 4.82 to 103 nM; EC50 [2, 6]: < 5.46 nM |
| CC[C@@H]1C[C@H](C)CC/C=C\[C@@H]2C[C@@]2(C(=O)NS(=O)(=O)C2CC2)NC(=O)[C@@H]2C[C@@H](Oc3ncc(OC)c4ccccc34)CN2C(=O)[C@H]1NC(=O)OC(C)(C)C(C)(F)F [Compound 5439, 3,3-difluoro-2-methylbutan-2-yl((2R,6S,7R,9R,13aS,14aR,16aS,Z)-14a-((cyclopropylsulfonyl)carbamoyl)-7-ethyl-2-((4-methoxyisoquinolin-1-yl)oxy)-9-methyl-5,16-dioxo-1,2,3,5,6,7,8,9,10,11,13a,14,14a,15,16,16a-hexadecahydrocyclopropa[e]pyrrolo[1,2-a][1,4]diazacyclopentadecin-6-yl)carbamate] | 0.51 to 1 nM | 0.1 to 0.5 nM |  |
| COc1ccc2c(O[C@@H]3C[C@H]4C(=O)N[C@]5(C(=O)NS(=O)(=O)C6(C)CC6)C[C@H]5/C=C\CC[C@@H](C)C[C@@H](C)[C@H](NC(=O)OC(C)(C)C)C(=O)N4C3)ncc(N3CCN(CC(F)F)CC3)c2c1 [Compound 4173] |  |  | EC50 ([1]; GETYPE1A, HCV genotype 1a replicon luciferase, read-out: LE_1a (EC50, range)): < 5.46 nM; EC50 ([2]; GETYPE1B, HCV genotype 1b replicon luciferase, read-out: LE_1b (EC50, range)): < 5.46 nM |
| CC[C@@H]1C[C@H](C)CC/C=C\[C@@H]2C[C@@]2(C(=O)NS(=O)(=O)C2CC2)NC(=O)[C@@H]2C[C@@H](Oc3nccc4c5c(ccc34)N(C)CCO5)CN2C(=O)[C@H]1NC(=O)C(=O)N(C)C [Compound 5318, N1-((2R,6S,7R,9R,13aS,14aR,16aS,Z)-14a-((cyclopropylsulfonyl)carbamoyl)-7-ethyl-9-methyl-2-((4-methyl-3,4-dihydro-2H-[1,4]oxazino[2,3-f]isoquinolin-7-yl)oxy)-5,16-dioxo-1,2,3,5,6,7,8,9,10,11,13a,14,14a,15,16,16a-hexadecahydrocyclopropa[e]pyrrolo[1,2-a][1,4]diazacyclopentadecin-6-yl)-N2,N2-dimethyloxalamide] | < 5.46 nM | < 5.46 nM |  |

Reference: patent US9499550B2 (BRISTOL-MYERS SQUIBB COMPANY, priority 2012, dated 2016)
